In patent US7358076B2, “Sublancin lantibiotic produced by Bacillus subtilis 168” (The University of Maryland, priority 1997, dated 2008):

Columns and labels:
B. cereus T spores [1] = conditions: cited from earlier work
B. cereus T spores [2] = conditions: from reference (30); cited from earlier work
B. cereus T spores [3] = experiment: halo assay on agar plates sprayed with spores, extended incubation; format: cell-based, Bacillus cereus; conditions: lawns from sprayed B. cereus T spores, incubation for several days, data not shown
Description: Two methods were employed to assay the activity of sublancin 168; a halo assay on plates, and a liquid assay in culture tubes. Both methods used Bacillus cereus T spores as the test organism. 250 mg of spores, prepared as previously described (12), were suspended in 30 mL of distilled water with a glass homogenizer, heat-shocked at 65° C. for 2 hr, centrifuged, and resuspended in 50% ethanol. This suspension was sprayed onto the surface of Medium A-containing agar plates using a Sigma spray unit (St. Louis Mo.). Prior to spraying, 10-20 μL volumes of serial dilutions of purified sublancin were spotted onto the plate. […] growth of the spores, and the diameters of the halos caused by sublancin inhibition were measured, and the minimum amount of peptide that was required to give an observable halo was noted. For the liquid assay, heat-shocked spores were suspended in sterile water to a final concentration of 2 mg/mL, and then added to culture tubes containing 1% BACTO®-tryptone, 0.1 M TRIS®-Pi, pH 6.8. Prior to adding the spores, serial dilutions of sublancin were added to the tubes. The final concentration of spores was 0.1 mg/mL. The tubes were incubated at 37° C. for 3 hr, using sufficient shaking to keep the spores well suspended. […]
The ability of sublancin to inhibit bacterial spore outgrowth was also determined. […]

For `C=C1NC(=O)CC[C@@H](C(=O)O)NC(=O)[C@H](NC(=O)[C@H](CCCCN)NC(=O)[C@@H](N)Cc2c[nH]c3ccccc23)CSC[C@@H](C(=O)N[C@@H]2C(=O)N3CCC[C@H]3C(=O)NCC(=O)N[C@H](C(=O)N[C@H](C(=O)N[C@@H]3C(=O)NCC(=O)N[C@@H](C)C(=O)N[C@@H](CC(C)C)C(=O)N[C@@H](CCC(N)=O)C(=O)N/C(=C/C)C(=O)N[C@H](C(=O)N[C@@H](Cc4ccccc4)C(=O)N[C@@H](CC(C)C)C(=O)N[C@@H](CCC(N)=O)C(=O)N[C@@H]4C(=O)N[C@@H](CC(C)C)C(=O)N[C@H]5C(=O)N[C@@H](CSC4C)C(=O)NC(=O)[C@H](CC(N)=O)N[C@H](C(=O)N[C@@H](CCCCN)C(=O)N[C@H](C(=O)NC(=C)C(=O)N[C@@H](CCCCN)C(=O)O)[C@@H](C)CC)CSC5C)CSC3C)C(C)C)CSC2C)N[C@@H](CC(C)C)C(=O)NC1=O` (stereo partly shown) [subtilin], the “concentration required to inhibit outgrowth of these same spores” value (B. cereus T spores [1]; B. cereus T spores, from references (27,29)) is listed as 80 nM, the “corresponding ratio, spore outgrowth inhibition versus inhibition of exponentially growing cells” value (B. cereus T spores [1]; comparison value for subtilin, same methods as reference (27)) is listed as 30 fold and the “binding and inhibition of spores, reversibility” value (B. cereus T spores [2]) is listed as “irreversibly”. The “appearance of halos after extended incubation of the plates” value (B. cereus T spores [3]) was “remained completely clear”.
